Test results: US6387955B1, “Enhanced anti-angiogenic activity of permanently charged derivatives of steroid hormones” (Pharmos Corporation, priority 1997, dated 2002)

Key:
MCF-7 tumors [1] = test: Growth of MCF-7 tumors implanted in ventral fat pad of nude mice, tumor size by MRI; type: in vivo; conditions: TMI pellet 6.3 mg 45-day release, 25 day time course
Protocol: (§1) Female CD1-nu/nu athymic mice (6 weeks old) were obtained from the Weizmann Institute Department of Animal Services. MCF-7 cells, serially passed as described above, were detached from the culturing flasks with 0.03% EDTA in phosphate buffered saline (PBS) and washed several times in normal saline. Cells (10^7/innoculum) were then injected into the ventral fat pad at the level of the breast. Coincident with cell introduction, a slow-release pellet of estradiol (0.72 mg/pellet, 45-day release profile; Innovative Research, Sarasota, Fla.) was implanted subcutaneously in the flank of the animal. Mice were anesthetized with ketamine/Rompun (i.p.) for the surgical procedures. […] At this point, animals were randomized into four study groups. In the first, the estrogen pellet was removed and replaced with a slow-release TMI-laden pellet (6.3 mg, 45-day release) (n=5). In the second group, the estrogen pellet was removed and replaced with a tamoxifen pellet (n=7). The third group was treated with a blank (placebo) pellet (n=5), while the fourth group was reimplanted with an estradiol pellet (n=4). TMI and placebo-treated animals were imaged (under ketamine/Rompun anesthesia) either immediately before pellet exchange (day 0) or at day 3, 6, 12 and 25 after pellet exchange.
MRI images were recorded with a Bruker 4.7 (tesla)/30 Biospec spectrometer (Bruker Medizintechnik, Rheinstetten, Germany). 1H Spin-echo images were recorded at 200.12 MHz using a custom-made 4.5 cm rf coil with an image data matrix of 256×128 pixels. Pilot scans of the tumors were completed using a fast transverse multi-slice spin-echo sequence (giving T1-weighted spectra; inter-echo time (TE)=16 msec, recovery time (TR)=500 msec) followed by T2-weighted sequences in which axial slices perpendicular to the spine (i.e., a coronal orientation) were recorded. In the latter case, spin-echo images were obtained using a 4 cm field of view, 1 mm slice thickness, 1.2 mm slice-to-slice distance and a four-sequence average. The TE and TR were optimized to provide the best image contrast generating values of 80 and 3200 msec, respectively. This gave a total imaging time of approximately 30 min. […] Tumor size was calculated using a slice-to-slice reconstruction in which the slice surface area was obtained from histograms provided by the resident Bruker software package using the following relationship: […]
where XSA is the cross-sectional area of an internal slice, ES is the cross-sectional area of an edge slice, l is the slice thickness and ssd is the distance from the middle of one slice to the middle of the next. For image analysis, the average pixel intensity of viable portions of MCF-7 tumors was determined from a central tumor slice using histograms generated by the dedicated Bruker software package. […]

MCF-7 tumors [2] = test: Tumor necrosis in MCF-7 tumors by T2-weighted MRI; type: in vivo, nude mice
Protocol: as §1
MRI images were recorded with a Bruker 4.7 (tesla)/30 Biospec spectrometer (Bruker Medizintechnik, Rheinstetten, Germany). 1H Spin-echo images were recorded at 200.12 MHz using a custom-made 4.5 cm rf coil with an image data matrix of 256×128 pixels. Pilot scans of the tumors were completed using a fast transverse multi-slice spin-echo sequence (giving T1-weighted spectra; inter-echo time (TE)=16 msec, recovery time (TR)=500 msec) followed by T2-weighted sequences in which axial slices perpendicular to the spine (i.e., a coronal orientation) were recorded. In the latter case, spin-echo images were obtained using a 4 cm field of view, 1 mm slice thickness, 1.2 mm slice-to-slice distance and a four-sequence average. The TE and TR were optimized to provide the best image contrast generating values of 80 and 3200 msec, respectively. This gave a total imaging time of approximately 30 min. Under the conditions reported, the in-plane resolution was 155×310 μm. Tumor size was calculated using a slice-to-slice reconstruction in which the slice surface area was obtained from histograms provided by the resident Bruker software package using the following relationship:
where XSA is the cross-sectional area of an internal slice, ES is the cross-sectional area of an edge slice, l is the slice thickness and ssd is the distance from the middle of one slice to the middle of the next. For image analysis, the average pixel intensity of viable portions of MCF-7 tumors was determined from a central tumor slice using histograms generated by the dedicated Bruker software package. […] Fibrosis was defined as those areas manifesting a decrease in pixel intensity of […].
In vivo tumor histology was assessed for TMI and placebo-treated tumors using T2-weighted MR images. […] At this time, the area of necrosis was two-fold higher than that observed on day 0 (increasing from an average of 20% to approximately 40%).

[3] = system: murine endothelial cells in MCF-7 tumors; test: Endothelial cell area in GSL-1 lectin stained MCF-7 tumor sections; type: in vivo, nude mice; conditions: viable areas of tumors, three days treatment, GSL-1 staining; control tumors 14%
Protocol: For specific staining of endothelial cells, paraffin-embedded sections (4 μm) were deparafinized and rehydrated. Sections were first treated with a blocking solution containing nonimmune goat serum for 30 min at room temperature and then with a 0.1 mg/ml solution of biotinylated Griffonia simplicifolia lectin (GSL-1) for 60 min. The GSL-1 lectin binds specifically to α-galactosyl residues and marks the vascular endothelium in mice. The sections were then washed with TRIS buffered saline (TBS) and treated for 30 min with avidin-biotin-peroxidase complex (Vector Laboratories, Burlingame, Calif.), after which the peroxidase was activated by incubation of the sections with 0.1 M acetate buffer (pH 5.2) containing 3% H2O2 and 3% 3-amino-9-ethylcarbazole for 5-10 min. […] The area of stained endothelial cells was determined by measuring the area above a threshold intensity (red 46-165; green 25-119; blue 37-94) of the peroxidase reaction product in each slice. […] Ten to fifteen areas per section were recorded for tumors treated three days with either the placebo and TMI.
Vascular density of murine endothelial cells was evaluated by specific staining, using the GSL-1 lectin (the equivalent of factor VIII antibody staining for human endothelial systems) followed by color image analysis of the resulting sections. […]

Tolerability in mice = type: in vivo; conditions: mice
[4] = system: MMP-2 (Gelatinase A) promoter; test: MMP-2 (Gelatinase A) related CAT activity in transfected bovine endothelial cells; type: cell-based
Protocol: Regulation of collagenase gene expression (for MMP-2 and MMP-9) was studied by measuring the activation of the relevant promoters linked to chloramphenicol acetyl transferase (CAT) as a reporter gene. The relevant vectors were introduced into the fibrosarcoma and endothelial cells by the lipofection as indicated by the manufacturer. CAT activity was determined after 3, 6 and 24 hrs either in the absence or presence of various concentrations of TMI.
To further examine where the inhibitory effects of TMI are manifested, human fibrosarcoma cells as well as bovine endothelial cells were transfected with plasmids containing the promoters for type IV collagenase (both MMP-2 and MMP-9) and the chloramphenicol acetyl transferase (CAT) construct to act as a reporter. Simian virus-40 (SV-40) served as the positive control. TMI was added to the transfected cells at concentrations of 1, 5 and 10 μM for 2 days, at which time cell viability was confirmed by trypan blue exclusion and cell counting.
In endothelial cells, TMI reduced CAT activity by 45% at 1.0 μM and by 80% at 10 μM.

Which “tumor regression (average shrinking)” value (MCF-7 tumors [1]) does the source give for `CC/C(=C(\c1ccccc1)c1ccc(OCC[N+](C)(C)C)cc1)c1ccccc1` [TMI, Tamoxifen methiodide] here?
Its value is 20%.

What about the “total area of necrosis, day three average” value (MCF-7 tumors [2]; day 3 after pellet exchange) of the same compound?
The value was 72%.

What about the “maximum extent of necrosis” value (MCF-7 tumors [2]; preliminary comparison of TMI and tamoxifen) of the same compound?
Its value is 72%.

What about the “onset of tumor necrosis” value (MCF-7 tumors [2]; sampling day after pellet exchange) of the same compound?
Its value is 3 days.

What about the “mean percentage of endothelial cell areas” value [3] of the same compound?
Its value is 5%.

What about the tolerability (Tolerability in mice) of the same compound?
The tolerability was “well tolerated”.

And the “reduction of CAT activity” value ([4]; 1.0 μM)?
The value was 45%.

And the “reduction of CAT activity” value ([4]; 10 μM)?
The value was 80%.
